Measured values taken from patent US20080305049A1, “Mri Contrast Agents for Diagnosis and Prognosis of Tumors” (priority 2005, published 2008).
“Also recorded” adds a separate entry of the source.

What was measured:
MDA-MB-231 cells = test: proliferation of ER− human breast cancer cells (MTT method)
Experimental: The number of cells was determined spectrophotometrically using the MTT [3-(4,5-dimethylthiazol-2-yl)-2,5-diphenyltetrazolium bromide] method. The samples are read using an ELISA plate reader at a wavelength of 570 nm. The amount of color produced is directly proportional to the number of viable cells.

[1] = target: T1, human recombinant ER (ERα) (Homo sapiens, UniProt P03372); test: competitive radiometric binding assay with tritiated estradiol; settings: for IC50 / Ki: human recombinant ER; for IC50: read-out: IC50, concentration of competing ligand required to replace half of the ER bound tritiated estradiol; for Ki: read-out: Ki, calculated equilibrium concentration of competing ligand that binds half of the ER binding sites
T1 sequence (P03372 1-595): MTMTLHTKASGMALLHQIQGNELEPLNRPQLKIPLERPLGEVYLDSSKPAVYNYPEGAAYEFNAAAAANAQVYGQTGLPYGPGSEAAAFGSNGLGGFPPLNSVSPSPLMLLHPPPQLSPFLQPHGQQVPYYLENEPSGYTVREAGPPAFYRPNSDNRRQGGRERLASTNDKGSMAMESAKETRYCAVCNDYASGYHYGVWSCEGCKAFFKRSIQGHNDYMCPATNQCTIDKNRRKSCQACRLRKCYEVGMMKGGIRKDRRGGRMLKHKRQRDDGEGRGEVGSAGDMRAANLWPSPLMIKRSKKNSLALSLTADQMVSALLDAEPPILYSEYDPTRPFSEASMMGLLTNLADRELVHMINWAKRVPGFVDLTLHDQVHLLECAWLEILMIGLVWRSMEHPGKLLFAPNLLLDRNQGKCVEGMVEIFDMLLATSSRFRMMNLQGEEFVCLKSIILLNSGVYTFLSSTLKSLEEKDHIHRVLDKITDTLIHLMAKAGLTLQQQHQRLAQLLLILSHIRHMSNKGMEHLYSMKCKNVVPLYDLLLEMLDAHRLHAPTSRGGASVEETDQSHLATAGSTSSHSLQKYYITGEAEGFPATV
Experimental: This procedure yields IC50 displacement values for the inhibition of the binding of tritiated estradiol to the ER. Low IC50 values correlates to high binding affinities.
The binding affinities were determined by performing a competitive radiometric-binding assay using tritiated estradiol and human recombinant ER. […] Table 1 presents the concentration of the competing ligand required to replace half of the ER bound tritiated estradiol, IC50, and the calculated equilibrium concentration of the competing ligand that will bind to half of the ER binding sites, Ki.

[2] = test system: MCF7, T47D and ZR-75-1 ER+ human breast cancer cells; test: proliferation of ER+ human breast cancer cells (MTT method); format: cell-based; settings: for agonistic or antagonistic effect on proliferation: 2 μM
Experimental: The agonistic or antagonistic effects of the conjugates and metal complexes thereof were studied by their capacity to enhance or arrest cell growth, respectively.
The vehicle (water) was added as control and served to normalize the changes in cell number.

[3] = target: T2, estrogen receptor (ER)-α in MCF7 cells (Homo sapiens, UniProt P03372); test: Western blot of ER-α level relative to tubulin; format: cell-based; settings: 6 hours after treatment
T2 construct: endogenous in cells; host or cells: MCF7 human breast cancer cells
T2 sequence (P03372 1-595): T1 sequence (P03372 1-595)
Excerpt: FIG. 10B is a graph showing the quantitative analysis of the blots in terms of ER expression relative to tubulin expression under the various treatments as indicated in the figure.
We then carried out a Western blot for determining the level of the estrogen receptor protein using an anti-ER antibody to identify ER in the blot. […] FIG. 10A depicts the Western blot and FIG. 10B depicts quantitation of the blot: the amount of ER relative to tubulin, assuming tubulin is constant under all treatment manipulations.

[4] = T1 and T2 relaxivity of water at 4.7 Tesla; format: physicochemical
Experimental: The T1 and T2 relaxivity of the MRI probes, i.e., the Gd complexes of the invention, were measured in saline solutions using standard protocols (i.e inversion recovery for T1 relaxivity and Carr-Purcell-Meiboom-Gill (CPMG) for T2 relaxivity).
The capacity of the Gd complex 7 to serve as a relaxation contrast agent was determined by measuring its relaxivity. […] For the T1 relaxivity measurement, a spin echo sequence was employed with a varying repetition time-TR (11 TRs, from 50 to 15,000 msec) and a fixed echo time of 23 msec.
The T1 relaxivity was determined from the slope.
We determined the MRI properties of the novel paramagnetic ER ligands. T1 and T2 relaxation rates of the water protons were measured as a function of the concentration of the Gd complex 7.

[5] = toxicology after intravenous injection; format: in vivo, CD1-NU mice
Excerpt: (§1) Animals: CD1-NU immunodeficient female mice (6-10 weeks old, 20-25 g weight) were provided by the Animal Unit of the Weizmann Institute of Science. During the MRI experiments, the animals were anesthetized by inhalation of 1% Isoflurane in an O2:N2O (3:7) mixture, applied through a nose cone. All animals were handled according to the regulations formulated by the Institutional Animal Care and Use Committee (IACUC) of the Weizmann Institute of Science (Rehovot, Israel).
Toxicology: The probes (e.g. Gd complex 7) were injected into the tail vein of CD1-NU mice at a varying dose in the range of 0.024 to 1.0 mmol/kg weight.

[6] = in vivo MRI monitoring of distribution and binding in mice with orthotopic MCF7 breast tumor; design: species or system CD1-NU immunodeficient female mice; settings: female, CD1-NU, mouse, tumor (orthotopic MCF7 breast tumor), intravenous; 24 hours after bolus 0.024 mmol/kg, calculated from relaxation rates; read-out: apparent concentration in the tumor
Excerpt: as §1
(§2) Tumors: ER^+ human breast cancer MCF-7 cells were implanted orthotopically into the mammary gland of the CD1-NU immunodeficient female mice, as previously described (Paran et al., 2004). The mice were ovariectomized to eliminate any […] estrogen. Initially a pellet of 17β-estradiol (Innovative Research, Florida) was implanted before the cells were injected, to ensure growth of the tumors. Within 3 weeks, tumors developed to a size of about ˜0.5 ml and consisted of highly proliferating cells. At this stage we removed the estrogen pellet and after a week administered the MRI probe. The extent of accumulation in the tumors was studied in vivo and in excised tumors and was then compared to results obtained by the standard immunostaining technique.
(§3) MRI: The accumulation of the MRI probe was tested by scanning the tumors before the injection of the probe and at times after the injection, using T1 weighted and T2 weighted pulse sequences. MR images were recorded with a 4.7 Tesla scanner (Bruker; Biospec 4.7 T/30 cm bore, dedicated Doty resonator, 3 cm diameter, 200 MHz for protons). The MRI parameters for scanning T2-weighted images were: 2D Spin echo with: TE/TR=69 msec/4000 msec, field of view (FOV) 5 cm, slice thickness 1.2 mm and 128×256 matrix. For T1 measurements two pulse sequences were employed: 1. Inversion recovery pulse sequence with varying T1 (n=20) ranging from 10 to 10000 msec, TE/TR=3.15 msec/15 msec, flip angle 10 degrees; 2. Fast gradient echo sequence. The spatial resolution was as in the T2 weighted image except the matrix was 128×128.
(§4) Distribution of the MR probes: The distribution of the Gd complex 7 in the blood, inner organs and the tumors was monitored over a period of 24 h after a bolus injection of 7 into the tail vein at a dose ranging from 0.024 to 0.4 mmol/kg.
(§5) The contrast agent distribution was monitored, alternating between two pulse sequences: 1. T1-weighted, 3D gradient echo with TE/TR of 4.3/18.3 ms; a 30° flip angle, 2. 2D inversion or saturation recovery sequence with varying T1 (n=20) ranging from 10 to 10000 msec, and gradient echo acquisition with TE/TR of 3.5/15 msec and 100 flip angel. The latter sequence enabled us to map the T1 relaxation time. The spatial resolution was the same for both sequences and during the whole experiment time, namely, 0.2×0.4×1.2 mm^3. Susceptibility gradient echo and T2 weighted spin echo protocols were employed to generate the MR images of the animal.
(§6) Several protocols of administration of the Gd complex 7 were examined: a high and low dose bolus injection of 0.4 mmol/kg and 0.024 mmol/kg, respectively (FIGS. 7 and 8), and a slow infusion (drip) protocol over 60 min of the high dose.
(§7) To determine the ER-binding of 7 administered at low concentration (0.024 mmol/kg), we performed measurements up to 24 after its administration, when all the tissues appeared to be cleared from the probe. FIGS. 7A-7B show the time course of the T1 relaxation in the bladder, orthotopic MCF7 breast tumor and muscle of a female CD1-NU immunodeficient mouse after a bolus administration of a low dose of 7 (0.024 mmol/kg) (7B) and the area of each organ as marked on the upper T2-weighted image (FIG. 7A). The images at 0, 0.5 and 2.5 h were recorded with the anaesthetized mouse in the same position. After the 2.5 h measurement, the mouse was returned to its cage and was again scanned under anesthesia at the 7 and 24 hours time points. […] The central slice of each organ is presented. […]

[7] = test system: orthotopic ER+ MCF7 breast tumor; test: as above; design: species or system CD1-NU immunodeficient female mice
Excerpt: as §1, §2, §3, §4, §5, §6, §7

rat uterus = test: MRI of the uterus of ovariectomized rats; format: in vivo; settings: 0.024 mmol/kg
Experimental: We developed and applied in vivo tests of the Gd complex 7 in the classical target organ of estrogen (the rat uterus). […] In order to be able to delineate the uterus, we applied a newly developed segmentation algorithm that enables us to automatically monitor changes in the entire uterine volume and in the changing nuclear relaxation rates due to interaction with 7. […] The endometrium volume increased by 45%, over the entire monitoring period of 5.5 hours, indicating response to the Gd complex 7, as shown in FIGS. 11A-11E.
FIG. 11A depicts the T2-weighted images prior to administration and FIG. 11B depicts the T2-weighted images after 5 hours of administration of compound 7 (the endometrium is circled in green) with the corresponding 3D automatically delineated right horn (FIGS. 11C and 11D) and the corresponding changes in the volume during the entire time course (FIG. 11E).

[8] = bolus 0.4 mmol/kg, about 5 hours

SMILES: C[C@]12CC[C@@H]3c4ccc(O)cc4CC[C@H]3[C@@H]1CC[C@@H]2O [17β-estradiol, reference compound]
- sensitivity of proliferation of ER− cells (MDA-MB-231 cells): neither sensitive

SMILES: C[C@]12CCC3c4ccc(O)cc4CCC3C1CC[C@@]2(O)C#Cc1cc(CN(CC(=O)O)CC(=O)O)nc(CN(CC(=O)O)CC(=O)O)c1 (stereo partly shown) [Compound 6]
- IC50 [1]: 4.4 µM
- Ki [1]: 0.4 µM
- dose at which induction of proliferation occurred ([2]; ER+ human breast cancer cells): nanomolar
- stimulation of cell growth ([2]; MCF7, T47D, ZR-75-1, 30 nM or 1 μM): stimulated the growth of the cells in a similar manner to that of estrogen
- agonistic or antagonistic effect on proliferation ([2]; MCF7, T47D): agonistic
- toxicity to cells ([2]; high concentrations): toxic at high concentrations
- effect on ER-α level [3]: induced partial degradation of the receptor; also recorded: induce ER reduction
- sensitivity of proliferation of ER− cells (MDA-MB-231 cells): neither sensitive

SMILES: CC12CCC3c4ccc(O)cc4CCC3C1CCC2(O)C#Cc1cc(CN(CC(=O)O)CC(=O)O)nc(CN(CC(=O)O)CC(=O)O)c1 (stereo not shown) [Compound 7]
- binding affinity to ER (in words) [1]: strong binding affinity to ER, comparable to that of tamoxifen
- T1 relaxivity [4]: 7.99 ± 0.05 mM⁻¹ s⁻¹
- T2 relaxivity [4]: 30.8 ± 1.0 mM⁻¹ s⁻¹
- toxicity (summary statement) ([5]; mice and rats): non toxic in mice and rats
- tolerability of repetitive administration ([5]; repetitive administration 3-7 days apart): appeared to be harmless
- lethality and adverse effects ([5]; up to 0.4 mmol/kg, intravenous, CD1-NU mice): not lethal and does not cause obvious adverse effects; also recorded: non-toxic
- concentration at 24 h [6]: 2500 nM
- final concentration in tumor versus muscle ([7]; 2 h after 1 hour slow infusion of 0.4 mmol/kg): similar
- muscle T1 relaxation rate (R1) ([7]; 24 hours after 0.024 mmol/kg): returned to that measured before
- tumor T1 relaxation rate (R1) increase ([7]; 24 hours after 0.024 mmol/kg): small but persistent
- residual amount in the muscle ([7]; 24 hours after bolus 0.024 mmol/kg): no residual amount
- clearance through the kidneys into the urine compared with GdDTPA ([7]; bolus 0.4 mmol/kg): several folds slower
- time of full clearance after administration ([7]; bolus 0.4 mmol/kg): 24 h
- MRI signal enhancement in the muscle [7, 8]: declined close to pre-contrast administration
- MRI signal enhancement in the tumor [7, 8]: persisted throughout the experimental time
- effect on ER-α level [3]: induced partial degradation of the receptor; also recorded: induce ER reduction
- effect in the uterus (rat uterus): agonistic effect in the uterus
- increase of endometrium volume (rat uterus; over 5.5 hours): 45%
- sensitivity of proliferation of ER− cells (MDA-MB-231 cells): neither sensitive

SMILES: CC/C(=C(\c1ccc(C#Cc2cc(CN(CC(=O)O)CC(=O)O)nc(CN(CC(=O)O)CC(=O)O)c2)cc1)c1ccc(OCCN(C)C)cc1)c1ccccc1 [Compound 16]
- IC50 [1]: 5.3 µM
- Ki [1]: 0.48 µM
- hormonal activity (summary statement) [2]: antagonist to estrogen
- agonistic or antagonistic effect on proliferation ([2]; MCF7, T47D): did not elicit an estrogenic effect
- effect on ER-α level [3]: acted like tamoxifen; also recorded: do not affect ER level

SMILES: C[C@]12CC[C@@H]3c4ccc(O)cc4C[C@@H](CCCCCCCCC[S+]([O-])CCCC(F)(F)C(F)(F)F)[C@H]3[C@@H]1CC[C@@H]2O (stereo partly shown) [ICI-182780, reference compound]
- effect on ER-α level [3]: down regulation
